# Measurements reported in publication PMC8037910, “Effect of Chronic Administration of 5-(3-chlorophenyl)-4-Hexyl-2,4 -Dihydro-3H-1,2,4-Triazole-3-Thione (TP-315)—A New Anticonvulsant Drug Candidate—On Living Organisms” (International Journal of Molecular Sciences, 2021).
# Key:
# [1] = test system: Albino Swiss mice; assay: Morphological blood parameters after chronic administration; assay type: in vivo; conditions: 47.6 mg/kg i.p. for 14 days
# Method: (§1) The experiments were carried out on adult male Albino Swiss mice weighing 20 ± 5 g. […] The mice from the control group (8 mice) received 0.9% NaCl solution i.p. once daily for 14 days.
# (§2) After completion of the experimental procedure (on the 15th day—24h after the last injection), the animals were decapitated. Their livers and kidneys were collected for histopathological examination, while blood was drawn for biochemical and morphological tests and for HPLC-FL determination of TP-315 in serum.
# For the determination of biochemical parameters (ALT, AST, GGT, creatinine, urea), whole blood was collected in clotting activator tubes (Sarstadt, Nümbrecht, Germany). To obtain serum, blood tubes were centrifuged at 4200 RPM for 10 min. Biochemical determinations were performed on an ERBA XL 640 analyzer (ERBA Mannheim, Germany) according to the manufacturer’s standard procedure. Whole blood for the determination of morphological parameters was collected in ethylenediaminetetraacetic acid (EDTA) tubes (Sarstadt, Nümbrecht, Germany). Morphological parameters were determined on the MYTHIC 18 Cormay analyzer (Cormay, Lublin, Poland) according to the manufacturer’s standard procedure.
# [2] = Quantification of TP-315 in mouse serum by HPLC-FL; assay type: in vivo; conditions: male, Albino Swiss, ip, mice, 47.6 mg/kg i.p. for 14 days, 24 h after the last injection, mean ± SD, read-out: Mean measured concentration of TP-315 in the plasma of the mice
# Method: as §1
# as §2, with “serum. […]” for “serum.”
# Serum samples for recovery study and quantification of the examined compound using the standard addition method were prepared by spiking 0.1 mL of TP-315 free serum or the serum of treated mice with 0.4 mL deionized water and 0.5 mL of the appropriate standard solution, providing a calibration range between 0.0125–0.05 mg/L (0.0125, 0.025, 0.0375, and 0.05 mg/L) and QC levels of 0.06, 0.12, and 0.18 mg/L. Investigated serum samples were treated in the same manner as the QCs. […]
# The HPLC analysis was carried out using an Elite LaChrom HPLC Merck-Hitachi (Merck, Darmstadt, Germany) equipped with a fluorescence detector (L-2485U) and a column thermostat Jetstream 2 Plus (100375, Knauer). […] The fluorescence detection was performed at an excitation of 265 nm and an emission of 411 nm. […]
smiles,measurement,setting,value
"CCCCCCn1c(-c2cccc(Cl)c2)n[nH]c1=S [TP-315, 5-(3-Chlorophenyl)-4-hexyl-2,4-dihydro-3H-1,2,4-triazole-3-thione]",Effect of chronic administration on hematological parameters vs control group,[1]; unpaired t-test p > 0.05,does not cause disturbances in the white blood cell and red cell systems
same,"BAS, basophils","[1]; examined group, mean ± SD",0.44 ± 0.19%
same,"EOS, eosinophile","[1]; examined group, mean ± SD",6.54 ± 2.05%
same,"HCT, hematocrit","[1]; examined group, mean ± SD",41.08 ± 3.65%
same,"HGB, hemoglobin concentration","[1]; examined group, mean ± SD",13.88 ± 1.28 g/dL
same,"LYM, lymphocytes","[1]; examined group, mean ± SD",65.7 ± 6.96%
same,"MCH, mean corpuscular hemoglobin","[1]; examined group, mean ± SD",16.62 ± 0.38 pg
same,"MCHC, mean corpuscular hemoglobin concentration","[1]; examined group, mean ± SD",33.84 ± 0.46 g/dL
same,"MCV, mean corpuscular volume","[1]; examined group, mean ± SD",49.1 ± 20.06 µm3
same,"MON, monocytes","[1]; examined group, mean ± SD",4.04 ± 1.17%
same,"MPV, mean platelet volume","[1]; examined group, mean ± SD",5.08 ± 0.25 µm3
same,"NEU, neutrophils","[1]; examined group, mean ± SD",23.28 ± 7.19%
same,"PCT, plateletcrit","[1]; examined group, mean ± SD",0.53 ± 0.16%
same,"PDW, platelet distribution width","[1]; examined group, mean ± SD",15.24 ± 0.17
same,"PLT, platelet","[1]; examined group, mean ± SD",1034.8 ± 268.44 10*3/µL
same,"RBC, red blood cells","[1]; examined group, mean ± SD",8.37 ± 0.84 10*6/μL
same,"RDW-CV, red blood cell distribution width","[1]; examined group, mean ± SD",13.46 ± 0.56%
same,"RDW-SD, red blood cell distribution width standard deviation","[1]; examined group, mean ± SD",28.46 ± 1.36 µm3
same,"WBC, white blood cells","[1]; examined group, mean ± SD",4.25 ± 1.2 10*3/µL
same,concentration at 24 h,[2],14.5 ± 12.5 ng/mL
